We go through one molecule from ChEMBL document CHEMBL5131534, “Identification of 2-Pyridinylindole-Based Dual Antagonists of Toll-like Receptors 7 and 8 (TLR7/8)” (ACS Med Chem Lett, 2022).

pIC50: −log10 of the molar value.

One data set concerns the target Toll-like receptor 4 (Homo sapiens, UniProt O00206). Briefly: Antagonist activity at […] stimulated human TRL4 overexpressed in HEK293 cells assessed as inhibition of NF kappa B/Ap-1 activation preincubated with compound for 30 mins followed by […] stimulation measured after 22 hrs by SEAP reporter assay. Format: cell-based. On the technique in general: In a reporter assay the amount or activity of a reporter protein is the signal.

Data set [1] concerns the target T1, Toll-like receptor 7 (Homo sapiens, UniProt Q9NYK1).
T1 sequence (Q9NYK1 whole entry): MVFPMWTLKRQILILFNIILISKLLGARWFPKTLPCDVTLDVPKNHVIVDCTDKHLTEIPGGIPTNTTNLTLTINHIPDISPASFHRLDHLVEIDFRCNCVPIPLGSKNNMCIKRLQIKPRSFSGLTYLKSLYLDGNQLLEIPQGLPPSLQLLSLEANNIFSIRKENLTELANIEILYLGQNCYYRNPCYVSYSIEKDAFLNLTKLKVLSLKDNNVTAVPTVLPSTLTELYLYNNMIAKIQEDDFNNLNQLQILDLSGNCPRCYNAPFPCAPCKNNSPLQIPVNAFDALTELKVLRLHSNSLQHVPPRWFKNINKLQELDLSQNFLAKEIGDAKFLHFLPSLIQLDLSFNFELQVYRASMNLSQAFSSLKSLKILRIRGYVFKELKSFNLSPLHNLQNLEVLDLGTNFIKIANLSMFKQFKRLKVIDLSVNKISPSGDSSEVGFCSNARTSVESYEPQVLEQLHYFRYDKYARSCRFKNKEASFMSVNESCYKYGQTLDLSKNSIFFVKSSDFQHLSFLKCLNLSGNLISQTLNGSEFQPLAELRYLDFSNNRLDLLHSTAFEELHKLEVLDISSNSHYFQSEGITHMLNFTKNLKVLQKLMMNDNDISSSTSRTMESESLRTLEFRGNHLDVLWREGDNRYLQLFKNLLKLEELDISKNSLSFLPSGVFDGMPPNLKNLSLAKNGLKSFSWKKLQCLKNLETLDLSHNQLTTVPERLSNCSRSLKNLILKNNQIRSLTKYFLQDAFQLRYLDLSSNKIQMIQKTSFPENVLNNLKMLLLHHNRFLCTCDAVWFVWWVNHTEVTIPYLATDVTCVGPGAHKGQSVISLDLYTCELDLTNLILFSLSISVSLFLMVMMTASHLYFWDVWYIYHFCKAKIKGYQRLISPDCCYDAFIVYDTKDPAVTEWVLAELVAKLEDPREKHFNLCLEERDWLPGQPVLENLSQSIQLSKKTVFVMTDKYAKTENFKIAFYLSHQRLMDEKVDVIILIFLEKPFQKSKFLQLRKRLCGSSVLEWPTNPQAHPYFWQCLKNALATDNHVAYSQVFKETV
Briefly: Antagonist activity at gardiquimod stimulated TRL7 in human PBMC cells assessed as inhibition of IL-6 production by ELISA analysis. Format: cell-based. (ELISA stands for enzyme-linked immunosorbent assay.)

In data set [2] the target is T1, Toll-like receptor 7. Nature of the data set: Antagonist activity at gardiquimod stimulated TRL7 in human whole blood assessed as inhibition of IL-6 production by ELISA analysis. Format: tissue-based.
Data set [3] in a line: Cmax in mouse blood at 15 mg/kg, po. Format: ADME, organism-based. Further details: dose 15 mg/kg, route po.
Data set [4] in a line: (§1) In vivo antagonist activity at TRL7 in C57BL/6 mouse assessed as inhibition of gardiquimod stimulated IL-6 production at […],po for 30 minutes and followed by gardiquimod addition measured after 90 mins by ELISA analysis relative to control. Further details: scale not given: the % may be the effect or the level left. Format: functional. The settings on record: time 120 min, 2 h.

Data set [5] can be described thus: as §1. The data set is classed as functional. Further details: scale not given: the % may be the effect or the level left. The settings on record: time 120 min, 2 h. This is another data set of the same source.
Data set [6] is described as follows: In vivo antagonist activity at TRL7 in C57BL/6 mouse assessed as inhibition of gardiquimod stimulated IL-6 production at 0.5 mg/kg,po for 30 minutes and followed by gardiquimod addition measured after 90 mins by ELISA analysis relative to control. Format: functional. Further details: scale not given: the % may be the effect or the level left. The settings on record: time 120 min, 2 h.

Data set [7] in a line: In vivo antagonist activity at TRL9 in C57BL/6 mouse assessed as inhibition of ODN1585 stimulated IL-6 production at 1 mg/kg,po for 30 minutes and followed by ODN1585 addition measured after 90 mins by ELISA analysis relative to control. Format: functional. Further details: scale not given: the % may be the effect or the level left. The settings on record: time 120 min, 2 h.

For data set [8], the system named is Mus musculus. Nature of the data set: Anti-inflammatory activity against MRL/Ipr Systemic lupus erythematosus mouse model assessed as inhibition of anti-Sm/RNP Ab titer at 0.1 mg/kg, po administered for 8 weeks and measured 24 hrs post final dose relative to control. Format: functional. The settings on record: time 1368 hrs. The arrangement: scale not given: the % may be the effect or the level left.

Data set [9] concerns Mus musculus. Briefly: Anti-inflammatory activity against MRL/Ipr Systemic lupus erythematosus mouse model assessed as inhibition of anti-Sm/RNP Ab titer at 1 mg/kg, po administered for 8 weeks and measured 24 hrs post final dose relative to control. Format: functional. The arrangement: scale not given: the % may be the effect or the level left. The settings on record: time 1368 hrs.

Data set [10] deals with Mus musculus. Briefly: Anti-inflammatory activity against MRL/Ipr Systemic lupus erythematosus mouse model assessed as inhibition of anti-Sm/RNP Ab titer at 5 mg/kg, po administered for 8 weeks and measured 24 hrs post final dose relative to control. The data set is classed as functional. The settings on record: time 1368 hrs. Further details: scale not given: the % may be the effect or the level left.

The nature of data set [11]: Toxicity in MRL/Ipr Systemic lupus erythematosus mouse model assessed as relative spleen weight at 1 mg/kg, po administered for 8 weeks and measured 24 hrs post final dose relative to control. The data set is classed as organism-based. The settings on record: in vivo, 1368 h.

Chain of Toll-like receptor 4 (O00206 whole entry): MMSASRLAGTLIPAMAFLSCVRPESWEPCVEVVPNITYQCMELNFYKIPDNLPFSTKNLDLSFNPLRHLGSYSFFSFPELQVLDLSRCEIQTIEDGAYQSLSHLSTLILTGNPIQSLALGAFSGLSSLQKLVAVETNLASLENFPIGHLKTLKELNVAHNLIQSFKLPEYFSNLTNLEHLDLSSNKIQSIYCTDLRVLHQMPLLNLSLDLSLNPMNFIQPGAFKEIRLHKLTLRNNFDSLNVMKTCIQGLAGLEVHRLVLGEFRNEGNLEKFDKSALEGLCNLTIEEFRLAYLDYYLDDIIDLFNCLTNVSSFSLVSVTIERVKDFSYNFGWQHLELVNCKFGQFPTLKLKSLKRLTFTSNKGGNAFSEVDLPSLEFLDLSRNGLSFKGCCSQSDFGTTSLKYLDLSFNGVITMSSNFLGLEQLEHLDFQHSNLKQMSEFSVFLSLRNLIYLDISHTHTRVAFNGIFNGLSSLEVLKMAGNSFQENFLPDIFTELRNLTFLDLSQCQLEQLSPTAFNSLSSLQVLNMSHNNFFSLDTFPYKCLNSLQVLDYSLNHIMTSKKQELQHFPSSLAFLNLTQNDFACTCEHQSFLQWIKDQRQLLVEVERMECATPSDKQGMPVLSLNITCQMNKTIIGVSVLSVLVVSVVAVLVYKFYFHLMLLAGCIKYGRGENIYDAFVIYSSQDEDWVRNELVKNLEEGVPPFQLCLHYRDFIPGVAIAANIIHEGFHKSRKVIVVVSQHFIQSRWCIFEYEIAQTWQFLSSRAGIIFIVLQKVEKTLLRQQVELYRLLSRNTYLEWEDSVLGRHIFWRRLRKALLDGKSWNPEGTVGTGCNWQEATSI

As a reminder, the pIC50 is −log10 of the IC50, conventionally taken in molar units. For orientation: Cmax means the highest concentration seen after dosing. In the case of `Cc1cc(-c2[nH]c3ccc(C4CCNCC4)cc3c2C(C)C)cc(C)n1`, the negative logarithm of the IC50 (pIC50) at Toll-like receptor 4 is under 5.00; at Toll-like receptor 7 [1], 9.00; at Toll-like receptor 7 [2], 8.85. Also, in [3], the Cmax is 255 nM. In addition, the Activity in [4] stood at 16%; in data set [5], 83%; in [6] it was 98%; in data set [7], 16%; in the data set on Mus musculus [8], 27%; with Mus musculus [9] it was 84%. For the same molecule, the figures for the Activity (in the data set with Mus musculus [10]; in [11]) were 74% and 48%, respectively.
